Measured values reported in ChEMBL document CHEMBL5120880, “Peptidomimetics: An Overview of Recent Medicinal Chemistry Efforts toward the Discovery of Novel Small Molecule Inhibitors” (J Med Chem, 2022).
Values after ≈ are worked out from the molar mass of the structure shown. Square brackets hold non-standard residues; d marks the D form. Peptide text beside a SMILES is read from it. * marks the point of attachment. Pro(cis-4-OPh) = O=C(O)[C@@H]1C[C@H](Oc2ccccc2)CN1; Bip = N[C@@H](Cc1ccc(-c2ccccc2)cc1)C(=O)O; X1 = CCCCCCCCCCCCCCCCCCS(=O)(=O)CCN*; Tle = CC(C)(C)[C@H](N)C(=O)O; X2 = CCCCCCCCCCCCCCCCCCSCCN*; NMeA = CN[C@@H](C)C(=O)O

What was measured:
Hepatitis C virus [1] = assay: Antiviral activity against HCV genotype 1b/3a NS5A infected in human Huh-7 cells by phenotypic assay; assay type: functional, organism-based, Hepacivirus hominis
Hepatitis C virus [2] = assay: Antiviral activity against HCV genotype 1b/6a NS5A infected in human Huh-7 cells by phenotypic assay; assay type: functional, organism-based, Hepacivirus hominis
SW480 = assay: Cytotoxicity against human SW480 cells assessed as cell growth inhibition; assay type: functional, cell-based
HCT-116 = assay: Cytotoxicity against human HCT-116 cells assessed as cell growth inhibition; assay type: functional, cell-based
MDA-MB-231 = assay: Cytotoxicity against human MDA-MB-231 cells assessed as cell growth inhibition; assay type: functional, cell-based
MDA-MB-468 = assay: Cytotoxicity against human MDA-MB-468 cells assessed as cell growth inhibition; assay type: functional, cell-based
BT-20 = assay: Cytotoxicity against human BT-20 cells assessed as cell growth inhibition; assay type: functional, cell-based
A549 = assay: Cytotoxicity against human A549 cells assessed as cell growth inhibition; assay type: functional, cell-based
Hepatitis C virus [3] = assay: Antiviral activity against HCV; assay type: functional, organism-based, Hepacivirus hominis
BT-474 = assay: Antitumor activity against human BT-474 cells assessed as cell growth inhibition; assay type: functional, cell-based
HCC1954 = assay: Antitumor activity against human HCC1954 cells assessed as cell growth inhibition; assay type: functional, cell-based
Hep 3B2 = assay: Antitumor activity against human Hep3B cells assessed as cell growth inhibition; assay type: functional, cell-based
NALM-6 = assay: Antitumor activity against human NALM-6 cells assessed as cell growth inhibition; assay type: functional, cell-based
FaDu = assay: Antitumor activity against human FaDu cells assessed as cell growth inhibition; assay type: functional, cell-based
SARS-CoV-2 [4] = assay: Antiviral activity against SARS-CoV-2 by cell based assay; assay type: functional, organism-based; conditions: Severe acute respiratory syndrome coronavirus 2
[5] = test system: Middle East respiratory syndrome-related coronavirus; assay: microbe, parasite or virus in culture
SARS-CoV = assay: microbe, parasite or virus in culture; conditions: Severe acute respiratory syndrome-related coronavirus
SARS-CoV-2 [6] = assay: microbe, parasite or virus in culture; conditions: Severe acute respiratory syndrome coronavirus 2
Murine hepatitis virus = assay: microbe, parasite or virus in culture; conditions: Murine coronavirus
[7] = test system: Feline infectious peritonitis virus; assay: microbe, parasite or virus in culture; conditions: Alphacoronavirus 1
HeLa = assay: Antiproliferative activity against human HeLA cells by MTT assay; assay type: functional, cell-based
N2a = assay: Antiproliferative activity against mouse N2a cells by MTT assay; assay type: functional, cell-based
[8] = target: Catenin beta-1/Cadherin-1 (Homo sapiens, UniProt P12830+P35222); assay: Binding affinity to beta-catenin/E-cadherin (unknown origin) assessed as inhibition constant; assay type: protein assay
Sequence of Catenin beta-1/Cadherin-1 (P35222 whole entry): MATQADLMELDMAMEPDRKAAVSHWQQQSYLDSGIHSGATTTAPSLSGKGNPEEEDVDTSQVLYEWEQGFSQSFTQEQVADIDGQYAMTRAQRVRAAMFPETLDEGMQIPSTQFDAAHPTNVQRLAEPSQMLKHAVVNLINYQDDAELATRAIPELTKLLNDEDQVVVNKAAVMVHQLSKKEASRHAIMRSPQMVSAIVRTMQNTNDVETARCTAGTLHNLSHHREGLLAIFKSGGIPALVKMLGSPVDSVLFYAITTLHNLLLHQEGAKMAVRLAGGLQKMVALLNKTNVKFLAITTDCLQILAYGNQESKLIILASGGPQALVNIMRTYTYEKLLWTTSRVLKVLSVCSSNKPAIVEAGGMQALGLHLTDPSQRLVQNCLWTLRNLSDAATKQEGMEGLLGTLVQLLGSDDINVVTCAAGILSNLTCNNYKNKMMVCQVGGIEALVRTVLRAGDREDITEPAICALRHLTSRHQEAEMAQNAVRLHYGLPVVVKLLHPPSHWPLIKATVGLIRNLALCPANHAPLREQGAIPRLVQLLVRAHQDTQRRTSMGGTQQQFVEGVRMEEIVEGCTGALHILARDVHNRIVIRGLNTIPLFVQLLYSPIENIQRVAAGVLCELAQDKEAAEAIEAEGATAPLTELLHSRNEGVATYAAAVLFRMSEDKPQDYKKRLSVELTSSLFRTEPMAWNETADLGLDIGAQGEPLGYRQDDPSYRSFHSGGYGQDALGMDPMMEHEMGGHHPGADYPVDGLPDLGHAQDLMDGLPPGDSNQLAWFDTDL
Sequence of Catenin beta-1/Cadherin-1 (P12830 whole entry): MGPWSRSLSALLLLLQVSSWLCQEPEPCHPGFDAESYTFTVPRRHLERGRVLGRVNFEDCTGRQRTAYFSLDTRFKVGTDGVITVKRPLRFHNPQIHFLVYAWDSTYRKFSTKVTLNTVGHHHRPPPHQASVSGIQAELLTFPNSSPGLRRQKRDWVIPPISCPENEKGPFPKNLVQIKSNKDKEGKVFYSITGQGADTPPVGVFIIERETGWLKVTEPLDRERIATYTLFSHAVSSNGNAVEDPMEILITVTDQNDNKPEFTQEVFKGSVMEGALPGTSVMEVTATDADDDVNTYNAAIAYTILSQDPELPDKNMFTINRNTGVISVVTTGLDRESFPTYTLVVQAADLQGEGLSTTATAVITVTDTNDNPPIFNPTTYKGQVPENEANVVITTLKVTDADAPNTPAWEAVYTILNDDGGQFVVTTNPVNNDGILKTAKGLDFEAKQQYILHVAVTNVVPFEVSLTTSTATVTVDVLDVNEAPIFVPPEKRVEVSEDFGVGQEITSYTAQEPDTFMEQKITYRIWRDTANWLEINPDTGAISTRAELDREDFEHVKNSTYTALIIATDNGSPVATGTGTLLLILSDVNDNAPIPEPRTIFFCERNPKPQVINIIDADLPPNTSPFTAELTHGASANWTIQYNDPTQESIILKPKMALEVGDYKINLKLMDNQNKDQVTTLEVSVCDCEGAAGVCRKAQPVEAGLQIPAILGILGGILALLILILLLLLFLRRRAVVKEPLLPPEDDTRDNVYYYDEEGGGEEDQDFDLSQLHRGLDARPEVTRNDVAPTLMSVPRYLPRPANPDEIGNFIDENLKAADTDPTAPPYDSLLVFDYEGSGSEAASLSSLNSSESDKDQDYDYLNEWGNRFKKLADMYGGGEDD

[9] = Binding affinity to beta-catenin/APC (unknown origin) assessed as inhibition constant; design: species or system Homo sapiens
[10] = Inhibition of Acinetobacter baumannii […] assessed as measuring NADH consumption rate
[11] = target: T1, Enoyl-[acyl-carrier-protein] reductase [NADH] FabI (Escherichia coli K-12, UniProt P0AEK4); assay: Inhibition of Escherichia coli […] assessed as measuring NADH consumption rate
T1 sequence (P0AEK4 whole entry): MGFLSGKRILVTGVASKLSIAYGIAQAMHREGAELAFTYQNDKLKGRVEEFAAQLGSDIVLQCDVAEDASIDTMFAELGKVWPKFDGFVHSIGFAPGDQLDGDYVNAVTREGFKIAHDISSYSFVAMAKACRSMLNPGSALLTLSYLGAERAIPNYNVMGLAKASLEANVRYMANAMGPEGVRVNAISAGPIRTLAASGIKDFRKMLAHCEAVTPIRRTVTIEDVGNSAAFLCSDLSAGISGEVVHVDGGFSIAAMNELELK

Escherichia coli = assay: Antibacterial activity against Escherichia coli AG100 assessed as minimal inhibitory concentration; assay type: functional
Acinetobacter baumannii = assay: Antibacterial activity against Acinetobacter baumannii ATCC BAA1605 assessed as minimal inhibitory concentration; assay type: functional
[12] = test system: Klebsiella pneumoniae subsp. ozaenae; assay: Antibacterial activity against Klebsiella pneumoniae A6030827 assessed as minimal inhibitory concentration; assay type: functional
Staphylococcus aureus = assay: Antibacterial activity against Staphylococcus aureus ATCC 29213 assessed as minimal inhibitory concentration; assay type: functional
[13] = test system: Middle East respiratory syndrome-related coronavirus; assay: Antiviral activity against MERS-CoV by cell based assay; assay type: functional, organism-based
[14] = Inhibition of FITC-labeled NS4A binding to HCV NS3 (4 to 182 residues) expressed in Escherichia coli […] (DE3) incubated for 60 mins by fluorescence anisotropy based competition assay; design: species or system Hepacivirus hominis
[15] = Antitumor activity against human UM-SCC-5 cells assessed as cell growth inhibition; assay type: functional, cell-based
[16] = Antitumor activity against human UM-SCC-38 cells assessed as cell growth inhibition; assay type: functional, cell-based

## COC(=O)N[C@H](C(=O)N1CCC[C@H]1c1ncc(-c2ccc(-c3ccc(-c4cnc([C@@H]5CCCN5C(=O)[C@@H](NC(=O)OC)C(C)C)[nH]4)cc3)cc2)[nH]1)C(C)C
Hepatitis C virus [1]
  EC50: 0.105 nM
Hepatitis C virus [2]
  EC50: 0.047 nM

## CCOC(=O)CC[C@H](NC(=O)[C@H](Cc1nn[nH]n1)NC(=O)[C@H](Cc1ccc2ccccc2c1)NC(=O)c1cc2cc(Cl)ccc2[nH]1)C(=O)Nc1ccc(OC(F)(F)F)cc1
SW480
  IC50: 14100 nM
HCT-116
  IC50: 69400 nM
MDA-MB-231
  IC50: 12300 nM
MDA-MB-468
  IC50: 7250 nM
BT-20
  IC50: 16500 nM
A549
  IC50: 86400 nM

## CC[C@@H]1[C@@H]2CN(C(=O)[C@H](C(C)(C)C)NC(=O)O[C@@H]3C[C@H]3CCCCC(F)(F)c3nc4ccc(OC)cc4nc3O2)[C@@H]1C(=O)N[C@]1(C(=O)NS(=O)(=O)C2(C)CC2)C[C@H]1C(F)F
Hepatitis C virus [3]
  EC50: 70 nM

## NC(=O)CC[C@H](NC(=O)[C@H](Cc1nn[nH]n1)NC(=O)[C@H](Cc1ccc2ccccc2c1)NC(=O)c1cc2cc(Cl)ccc2[nH]1)C(=O)Nc1ccc(OC(F)(F)F)cc1
SW480
  IC50: 28200 nM
HCT-116
  IC50: 63900 nM
MDA-MB-231
  IC50: 34300 nM
MDA-MB-468
  IC50: 29200 nM
BT-20
  IC50: 38400 nM
A549
  IC50: 60300 nM

## CCCCCCCCCCCCCCc1cccc(O[C@H]2C[C@@H](C(=O)NCC(c3ccccc3)c3ccccc3)N(C(=O)[C@@H](NC(=O)[C@H](C)NC)C(C)(C)C)C2)c1
BT-474
  EC50: 7000 nM
HCC1954
  EC50: 19800 nM
Hep 3B2
  EC50: 2200 nM
NALM-6
  EC50: 11100 nM
FaDu
  EC50: 1500 nM

## CC(C)C[C@H](NC(=O)OC1CCC(F)(F)CC1)C(=O)N[C@H](C=O)C[C@H]1CCNC1=O
SARS-CoV-2 [4]
  EC50: 110 nM
[5]
  IC50: 70 nM
SARS-CoV
  IC50: 2300 nM
SARS-CoV-2 [6]
  IC50: 1500 nM
Murine hepatitis virus
  EC50: 80 nM
[7]
  EC50: 120 nM

## CCCCC1CCC(OC(=O)N[C@@H](CC(C)C)C(=O)N[C@H](C=O)C[C@H]2CCNC2=O)CC1 (some centres not stated)
SARS-CoV-2 [4]
  EC50: 100 nM
[5]
  IC50: 150 nM
SARS-CoV
  IC50: 900 nM
SARS-CoV-2 [6]
  IC50: 800 nM
Murine hepatitis virus
  EC50: 120 nM
[7]
  EC50: 220 nM

## COC(=O)N[C@H](C(=O)N1CCC[C@H]1C(=O)Nc1cccc(-c2ccc3c(c2)C(F)(F)c2cc(-c4cnc([C@@H]5CCCN5C(=O)[C@@H](NC(=O)OC)C(C)C)[nH]4)ccc2-3)c1)C(C)C
Hepatitis C virus [3]
  EC50: < 0.05 nM
Hepatitis C virus [1]
  EC50: > 0.5 nM
Hepatitis C virus [2]
  EC50: 0.275 nM

## COC(=O)N[C@H](C(=O)N1CCC[C@H]1C(=O)Nc1cc2ccc1CCc1ccc(cc1NC(=O)[C@@H]1CCCN1C(=O)[C@@H](NC(=O)OC)C(C)C)CC2)C(C)C
Hepatitis C virus [3]
  EC50: 0.08 nM
Hepatitis C virus [1]
  EC50: > 0.5 nM
Hepatitis C virus [2]
  EC50: > 0.5 nM

## O=C(Cc1ccccc1)NC1CC2CN(Cc3ccccc3)CC3C2CC=C(COC(=O)Cc2ccccc2)C13 (configuration not stated)
HeLa
  EC50: 10300 nM
N2a
  EC50: 2100 nM

## CCCCCCCCCCCCCCCCCCS[C@H]1C[C@@H](C(=O)NCC(c2ccccc2)c2ccccc2)N(C(=O)[C@@H](NC(=O)[C@H](C)NC)C(C)(C)C)C1
BT-474
  EC50: 10800 nM
HCC1954
  EC50: 17500 nM
Hep 3B2
  EC50: 12400 nM
NALM-6
  EC50: 26900 nM
FaDu
  EC50: 5400 nM

## O=C(O)CC[C@H](NC(=O)[C@H](Cc1nnn[nH]1)NC(=O)[C@H](Cc1ccc2ccccc2c1)NC(=O)c1cc2c(Cl)cccc2[nH]1)C(=O)Nc1ccc(OC(F)(F)F)cc1
[8]
  Ki: 13000 nM
[9]
  Ki: 173000 nM

## Cc1c(CN(C)C(=O)/C=C/c2cnc3c(c2)CC[C@@H](N)C(=O)N3)oc2ccccc12.Cl
[10]
  IC50: < 10 nM
[11]
  IC50: < 10 nM
Escherichia coli
  MIC: ≤ 4 µg/mL
Acinetobacter baumannii
  MIC: ≤ 4 µg/mL
[12]
  MIC: ≤ 4 µg/mL
Staphylococcus aureus
  MIC: ≤ 4 µg/mL

## Cc1c(CN(C)C(=O)/C=C/c2cnc3c(c2)NC[C@@H](N)C(=O)N3)oc2ccccc12.Cl
[10]
  IC50: < 10 nM
[11]
  IC50: < 10 nM
Escherichia coli
  MIC: < 4 µg/mL
Acinetobacter baumannii
  MIC: < 4 µg/mL
[12]
  MIC: < 4 µg/mL
Staphylococcus aureus
  MIC: < 4 µg/mL

## CCCC1CCC(OC(=O)N[C@@H](CC(C)C)C(=O)N[C@H](C=O)C[C@H]2CCNC2=O)CC1 (some centres not stated)
[13]
  EC50: 50 nM
SARS-CoV-2 [4]
  EC50: 100 nM
SARS-CoV-2 [6]
  IC50: 1600 nM
Murine hepatitis virus
  EC50: 130 nM
[7]
  EC50: 120 nM

## Cc1oc2c(N)cccc2c1CN(C)C(=O)/C=C/c1cnc2c(c1)CCC(N1CCCC1)C(=O)N2 (configuration not stated)
[11]
  IC50: < 10 nM
Escherichia coli
  MIC: 8 µg/mL (≈ 16.9 µM)
Acinetobacter baumannii
  MIC: ≤ 4 µg/mL
Staphylococcus aureus
  MIC: ≤ 4 µg/mL

## COC(=O)N[C@H](C(=O)N1CCC[C@@H]1c1ncc(-c2cccc(-c3c4c(c(-c5cccc(-c6cnc([C@@H]7CCCN7C(=O)[C@H](NC(=O)OC)c7ccccc7)[nH]6)c5)c5c3C(C)(C)CC5)C(C)(C)CC4)c2)[nH]1)c1ccccc1
Hepatitis C virus [1]
  EC50: 0.053 nM

## Cc1c(CN(C)C(=O)/C=C/c2cnc3c(c2)CC[C@@H](N2CCCC2)C(=O)N3)oc2ccccc12
[10]
  IC50: < 10 nM
[11]
  IC50: < 10 nM
Escherichia coli
  MIC: ≤ 4 µg/mL
Acinetobacter baumannii
  MIC: ≤ 4 µg/mL
[12]
  MIC: ≤ 4 µg/mL
Staphylococcus aureus
  MIC: ≤ 4 µg/mL

## COC(=O)N[C@@H](C(=O)N1CCC[C@H]1C(=O)Nc1cncc(-c2c3c(c(-c4cncc(NC(=O)[C@@H]5CCCN5C(=O)[C@H](NC(=O)OC)c5ccccc5)c4)c4c2C(C)(C)CC4)C(C)(C)CC3)c1)c1ccccc1
Hepatitis C virus [2]
  EC50: > 0.5 nM

## Cc1c(CN(C)C(=O)/C=C/c2cnc3c(c2)NC[C@@H](N2C[C@@H](C)O[C@@H](C)C2)C(=O)N3)oc2ccccc12
[11]
  IC50: < 10 nM
Acinetobacter baumannii
  MIC: ≤ 4 µg/mL
[12]
  MIC: 16 µg/mL (≈ 31.8 µM)
Staphylococcus aureus
  MIC: ≤ 4 µg/mL

## CCCCCCNC(=O)c1ncc(C(=O)NCCCCNC(=N)N)[nH]1
[14]
  IC50: 4700 nM

## CCCCCNC(=O)c1ncc(C(=O)NCCCCNC(=N)N)[nH]1
[14]
  IC50: 1910 nM

## CNC(=O)CNC(=O)c1ncc(C(=O)NCCCCNC(=N)N)[nH]1
[14]
  IC50: 1910 nM

## CCCCCCCCCCCCCCCCCCS(=O)(=O)CCNC(=O)[C@H](Cc1ccc(-c2ccccc2)cc1)NC(=O)[C@@H]1C[C@H](Oc2ccccc2)CN1C(=O)[C@@H](NC(=O)[C@H](C)NC)C(C)(C)C (H-[NMeA][Tle][Pro(cis-4-OPh)][Bip]-X1)
[15]
  EC50: 730 nM
[16]
  EC50: 140 nM

## CCCCCCCCCCCCCCCCCCSCCNC(=O)[C@H](Cc1ccc(-c2ccccc2)cc1)NC(=O)[C@@H]1C[C@H](Oc2ccccc2)CN1C(=O)[C@@H](NC(=O)[C@H](C)NC)C(C)(C)C (H-[NMeA][Tle][Pro(cis-4-OPh)][Bip]-X2)
[15]
  EC50: 960 nM
[16]
  EC50: 330 nM
